Columns and labels:
Kir4.1 = Kir4.1 expression (real-time PCR, western blot) in rat RMG primary cultures and retinal explants; assay type: cell-based
Description: Rat RMG cells were obtained as described (deKozak, Y., Naud, M. C., Bellot, J., Faure, J. P., and Hicks, D. (1994) Differential tumor necrosis factor expression by resident retinal cells from experimental uveitis-susceptible and -resistant rat strains. J Neuroimmunol 55, 1-9). Briefly, rats at postnatal (PN) day 17 (when RMG cells are mature) were sacrificed and eyes enucleated. Intact eyeballs were maintained in DMEM overnight at room temperature in the dark, and then incubated 45 min with 2 mg/ml trypsin/collagenase I at 37° C. The neural retinas were separated from the lens and vitreous, cut into small fragments and plated in Petri dishes containing DMEM supplemented with 10% FCS, 100 units/ml penicillin, 100 µg/ml streptomycin, and 0.2% amphotericin B. Cultures were maintained at 37° C. in a humidified atmosphere containing 5% CO2. After 5 to 6 days, the cultures were washed extensively with medium so that only a strongly adherent flat cell population remained.
Müller cells were seeded in 6-well tissue culture plates (Becton Dickinson, Le Pont de Claix, France). Rat PN17 RMG cells were maintained in their initial Petri dishes. Sub confluent (80%) cells were incubated in media supplemented with 10% steroid-free (charcoal treated) FCS for 24 hrs. Corticosteroid (Sigma-Aldrich, Saint Quentin Fallavier, France) treatments were then applied respectively for a further 24 hrs: 10 nM aldosterone, 10 nM aldosterone plus 1).IM RU38486 (GR-specific antagonist), 10 nM aldosterone plus 1 µM RU26752 (MR-specific antagonist) or 1 µM dexamethasone. The steroids were previously dissolved in 2% steroid-free FCS media containing 0.1% ethanol. Control cells were treated with 0.1% ethanol in media.
After enucleation, rat retinas were isolated immediately under aseptic conditions and cut into 4 pieces. They were then transferred onto a Cyclopore 0.2).Im polycarbonate membrane (Whatman, Maidstone, England), and flatmounted with the vitreal side up. The support membranes were placed in 6-well tissue culture plates containing 2 ml DMEM supplemented with 10% steroid-free FCS, 1% penicillin-streptomycin and 0.1% amphotericin B. Explants were treated with corticosteroids as described for cultured cells. Similarly, the dose-dependent effect of aldosterone (0.1-100 nM) was analyzed on retinal explants in separate experiments.
Total RNA was isolated from the treated RMG cells and retinal explants using RNeasy Mini Kit (Qiagen, Courtaboeuf, France). First-strand cDNA was synthesized after DNase I (Qiagen) treatment using random primers (Invitrogen) and superscript II reverse transcriptase (Invitrogen). Transcript levels of ENaC-a, Kir4.1 and AQP4 were analyzed by real-time PCR performed in 7500 Real-Time PCR System (Applied Biosystems, Foster City, Calif., USA) with either TaqMan® (Applied Biosystems) or SYBR® Green (Invitrogen, Cergy Pontoise, France) detection. The 18S was used as internal control.
Retinal explants were homogenized in Np40 buffer in the presence of protease inhibitors. The protein concentration was determined by the Bradford method. Equal amounts of protein (12 .ug) were separated on Novex® 4%-12% Tris-Glycine gel (Invitrogen), transferred to nitrocellulose, and the blots were incubated with primary antibodies at 4° C. overnight. The membranes were washed, incubated with horse radish peroxidase conjugated goat anti-rabbit IgG (1:3000, Vector, AbCys, Paris, France) for 1 hr at room temperature, and developed using ECL Plus western blotting detection reagents (GE healthcare, Orsay, France). The j3-actin was used as internal control. The following primary antibodies were used: rabbit anti-alpha ENaC (1:500, Abcam, Cambridge, Mass., USA), rabbit anti-Kir4.1 (1:400, Alomone Labs, Jerusalem, Israel), rabbit anti-AQP4 (1:750, Millipore, St Quentin en Yvelines, France) and rabbit anti-j3-actin (1:1000, Abcam)

ENaC-α = ENaC-α immunolocalization in retina of aldosterone-injected eyes; assay type: in vivo, Lewis rats; settings: aldosterone-injected vs saline-injected eyes
Description: Anesthesia of rats was induced by intramuscular injection of ketamine (100 mg/kg, Virbac, Carros, France) and chlorpromazine (0.65 mg/kg, LARGACTIL®, Sanofi Aventis, Livron sur Drome, France). Intravitreous injections were performed using microfine (300 μl) syringes with 30 G needles under topical anesthesia (tetracaine 1%, Aldrich, Lyon, France). Rat eyes were injected with 5 μl aldosterone diluted in 0.9% saline to obtain a concentration of 200 nM for injection, corresponding to a final concentration of 20 nM in the vitreous. Control rat eyes were injected with 5 μl saline. Twenty-four hrs after injection, rats were sacrificed. Eyes were then removed for retinal flat mounting, immunohistochemistry and morphological analysis respectively.
Eyes were snap frozen in Tissue-Tek OCT-compound (Bayer Diagnostics, Puteaux, France). Ten μm cryostat sections of rat eyes were fixed in 4% PFA for 15 min and permeabilized with 0.1% Triton X-I00 for 30 min. Unspecific binding sites were blocked with 5% normal goat serum for 1 hr. The sections were then incubated with primary antibodies for 1 hr at room temperature, washed in PBS, and further incubated with secondary antibodies for 1 hr. […] Images were taken using a fluorescence microscope (Olympus BX51, Rungis, France) equipped with a CCD camera (Olympus DP70). […]

In the case of `C[C@]12CCC(=O)C=C1CC[C@@H]1[C@@H]2[C@@H](O)C[C@]2(C=O)[C@@H](C(=O)CO)CC[C@@H]12` [aldosterone], the “Kir4.1 expression (transcripts)” value (Kir4.1; 24 hrs treatment, rat RMG primary cultures and retinal explants) is reported as “up-regulate”, the “expression of potassium channel Kir4.1” value (Kir4.1; aldosterone 24 hrs) is reported as 1.9 fold and the “aldosterone concentration at which increase in Kir4.1 transcripts is fully saturated” value (Kir4.1; dose-dependent effect, retinal explants) is reported as 10 nM. The “Kir4.1 expression at the protein level” value (Kir4.1; western blot) was “up-regulated” and the “ENaC-α expression intensity and number of expressing cells in retina” value (ENaC-α) was “increased in the INL”.
